Test results taken from the METLIN SMRT retention time set (Domingo-Almenara et al. 2019).

Test: gradient 5% acetonitrile 3 min, to 50% in 2 min, to 85% in 15 min, held 3 min, 100 µL/min
Conditions: column: Zorbax Extend-C18 2.1 x 50 mm; eluents: water / acetonitrile, 0.1% formic acid
Summary of the method: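 Each retention time is based on an adduct peak selected computationally and verified by manual inspection. Measurements used HPLC–quadrupole time-of-flight mass spectrometry in positive and negative ionization mode on mixtures of ~100 pure standards. Chromatography ran on a Zorbax Extend-C18 column (2.1 × 50 mm, 1.8 μm) at 100 μL/min with water and acetonitrile, each containing 0.1% formic acid, and dead and dwell volumes of 40 μL and 900 μL.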

| SMILES | RP-LC retention time |
| --- | --- |
| O=C(Cn1c(=O)oc2ccc(C(=O)N3CCCCC3)cc21)N1CCc2ccccc2C1 | 804 s |
| CS(=O)(=O)N1CCC(C(=O)Nc2ccc(F)cc2F)Oc2ccc(Cl)cc21 (centres undefined) | 944 s |
| CCc1ccc(CNC(=O)C2CCN(c3ncnc4c3oc3ccccc34)CC2)cc1 | 842 s |
| Cc1nn(-c2ccc(-c3ccccc3)nn2)c(C)c1S(=O)(=O)N1CCC(C)CC1 | 1160 s |
| CCOc1ccc(N2C(=O)C3N=NN(Cc4nc(-c5ccccc5Cl)no4)C3C2=O)cc1 (centres undefined) | 996 s |
| CCCn1nnnc1NCc1ccc(-c2ccc(Br)cc2)o1 | 957 s |
| Cc1ccc(C)c(S(=O)(=O)N2CCc3nc(-c4ccccc4)ncc3C2)c1 | 1170 s |
| C=C1C(=O)O[C@@H]2/C=C(\C)CCC=C(C)CC[C@@H]12 | 1090 s |
| OCCN(Cc1ccccc1)CC(O)COc1ccc(Cl)cc1Cl (centres undefined) | 602 s |
| COc1ccc(Nc2ncccc2S(N)(=O)=O)cc1Cl | 801 s |
| Cc1cc(C)cc(NC(=O)C2CCCN(c3nc4ccsc4c(=O)n3-c3cccc(C)c3)C2)c1 (centres undefined) | 1100 s |
| COc1ccc(-c2cc(C(=O)NCC(c3ccco3)N(C)C)no2)cc1 (centres undefined) | 661 s |
| CC(=O)Nc1cc2c(cc1Sc1ccc(Cl)cc1)n(C)c(=O)n2C | 806 s |
| CCCNC(=O)CC1Sc2ncccc2N(CC)C1=O (centres undefined) | 642 s |
| CCOC(=O)C1CCN(c2cc3c(cc2NC(=O)CC)n(C)c(=O)c(=O)n3C)CC1 | 724 s |
| CC1(C(=O)NCc2ccccc2)CCCN(S(=O)(=O)c2ccccc2)C1 (centres undefined) | 883 s |
| Cc1cc(F)ccc1NC(=O)Cn1cccc1-c1nnc(C2CCC2)o1 | 916 s |
| CCc1noc(NC(C)=O)c1-c1ccc(OC)c(S(=O)(=O)N2CCCc3ccccc32)c1 | 879 s |
| CCS(=O)(=O)N1CCc2nc(-c3ccc(OC)cc3)ncc2C1 | 805 s |
| CCCNC(=O)C1CCCN(c2ccc(SCC(=O)Nc3ccccc3Cl)nn2)C1 (centres undefined) | 617 s |
| O=C(CC1CCN(S(=O)(=O)c2ccc(Cl)s2)CC1)N1CCCCCC1 | 1000 s |
| CC(C)c1cccc(NC(=O)C2CCCN(c3cn[nH]c(=O)c3)C2)c1 (centres undefined) | 692 s |
| O=C(Nc1ccc(Cl)cc1)N1CCCC1c1nc(-c2ccccc2)no1 (centres undefined) | 1040 s |

| SMILES | RP-LC retention time |
| --- | --- |
| COc1ccccc1NC(=O)Cn1c(C(F)(F)F)nc2cc3c(cc21)OCCO3 | 886 s |
| CCn1nccc1C(=O)NC1CCN(c2nc3c(s2)c(C)nn3-c2ccc(F)cc2)CC1 | 1060 s |
| CCc1nc2cc(-c3noc(CCc4ccccc4OC)n3)ccc2o1 | 1190 s |
| CCCCNC(=O)C1CCN(C(=O)c2cc3ccsc3n2Cc2ccc(Cl)cc2)CC1 | 1010 s |
| CC(=O)Nc1ccc(SCCCC(=O)N2CCc3ccccc32)nn1 | 706 s |
| O=C(NCCc1ccccc1)C(=O)NCC1OCCc2ccccc21 (centres undefined) | 946 s |
| O=C(Nc1ccc(-c2nc(-c3ccc(F)cc3)no2)cc1)c1ccco1 | 1100 s |
| Cc1cccc(N2CCN(Cc3nc(-c4ccc(N5CCCCC5)nc4)no3)CC2)c1 | 965 s |
| CC(C)c1ccc(N2C(=O)C3N=NN(Cc4nc(-c5ccccc5Br)no4)C3C2=O)cc1 (centres undefined) | 1140 s |
| C[C@]12CCC(=O)C[C@@H]1CC[C@@H]1[C@@H]2CC[C@@]2(C)[C@H]1CC[C@]2(C)O | 1050 s |
| O=C(NC1CCN(c2cc(-c3cccs3)[nH]n2)C1)c1ccc(Cl)cc1 (centres undefined) | 776 s |
| CC1(O)CCOC2(CCN(C(=O)C3CCCC3)CC2)C1 (centres undefined) | 662 s |
| CCCCc1nc(SCC(=O)Nc2nc(-c3ccc(Br)cc3)cs2)n[nH]1 | 1050 s |
| O=C(NC1CCOCC1)c1ccc(-c2cc(-c3cn[nH]c3-c3ccccn3)ccn2)cc1 | 617 s |
| O=C(Cn1nc2c3sc(N4CCCCC4)nc3ncn2c1=O)Nc1cccc(Br)c1 | 855 s |
| CCOC(=O)c1nc2cc(C)c(C)cc2nc1N1CCN(c2ccccn2)CC1 | 730 s |
| COc1ccc(CC(=O)Nc2nnc(SCC(=O)NC3=NCCS3)s2)cc1 | 682 s |
| Cc1cc(C)cc(-c2nc(C3CC(=O)N(c4ccc(F)c(Cl)c4)C3)no2)c1 (centres undefined) | 1050 s |
| COc1ccc(-c2c(C(=O)Nc3ccc(C(C)=O)cc3)nc3ccccn23)cc1 | 939 s |
| Cc1ccc(CNC(=O)Cn2cccc(-c3nc(-c4ccc(Br)cc4)no3)c2=O)cc1 | 1030 s |
| COc1ccc(C(C)NC(=O)Cc2cn(C)c3ncccc23)cc1OC (centres undefined) | 640 s |
| Cc1nc(-c2ccccc2)cc2nn(CC(=O)N3CCc4ccccc43)c(=O)n12 | 966 s |
| CCOc1ccc(-c2cc3c(=O)n(CC(O)c4ccc(C(C)C)cc4)ccn3n2)cc1 (centres undefined) | 1120 s |

| SMILES | RP-LC retention time |
| --- | --- |
| O=C(Nc1nc2ccc([N+](=O)[O-])cc2s1)c1ccc(Br)s1 | 1040 s |
| CCn1c(=O)c(N2CCN(C(=O)Nc3cc(F)ccc3F)CC2)nc2ccccc21 | 997 s |
| CCCN1CCN(c2ncc3c(n2)CCN(Cc2ccccc2OCC)C3)CC1 | 565 s |
| COC(=O)c1ccccc1Nc1c(-c2ccc(OC)cc2)nc2cnccn12 | 948 s |
| CC(=O)N1CCC2(CC1)Oc1ccccc1C1CC(c3ccccc3)=NN12 (centres undefined) | 953 s |
| CCc1c(C2CCN(C(=O)c3cc(C)oc3C)CC2)noc1N | 704 s |
| CCOC1CCN(C(=O)NC(C)(C)C)CC1 | 700 s |
| COC(=O)c1ccc(C2CC(=O)Nc3c(-c4ccc(OC)cc4)csc32)cc1 (centres undefined) | 1000 s |
| CCc1ccc(NC(=O)N2CCC3(CC2)NC(=O)c2ccccc2N3C)cc1 | 808 s |
| CCOCCCNC(=O)Cn1nc(C)c2nn(-c3ccc(Cl)cc3)c(-n3cccc3)c2c1=O | 898 s |
| COCC1(O)CCOC2(CCN(Cc3ccc(F)cc3)CC2)C1 (centres undefined) | 654 s |
| CN(C)C(=O)c1cn(C2CN(S(=O)(=O)c3cccc4nsnc34)C2)nn1 | 657 s |
| CCC(=Cc1ccc(CC)cn1)CC | 686 s |
| CN1CCN(c2nc(C3=C(c4c[nH]c5ccccc45)C(=O)NC3=O)c3ccccc3n2)CC1 | 674 s |
| O=C(CCc1c(-c2ccc(Br)cc2)nc2ccccn12)NC1CC1 | 610 s |
| CC(C)N1C(=O)c2cccnc2Sc2cc(NC(=O)Cc3ccccc3Cl)ccc21 | 906 s |
| Cc1cc(-c2nnc(-c3ccccc3)o2)c(C)n1CC(=O)NC1CCCCC1 | 883 s |
| CCc1nn(CC)c(=O)c2cc(S(=O)(=O)NCc3ccc(F)c(Cl)c3)cn12 | 1010 s |
| CNC(=O)c1sc2nc(-c3ccc(OC)cc3)c(NC(C)(C)C)n2c1C | 737 s |
| Cc1ccc(C)c(-c2coc(-c3ccc(NC(=O)CC(C)C)cc3)n2)c1 | 1260 s |
| NS(=O)(=O)c1ccc(CCNS(=O)(=O)c2cccc(-c3nc(-c4ccccc4)no3)c2)cc1 | 952 s |
| COc1ccc(-c2csc(NC(=O)c3ccc4c(c3)OCCO4)n2)cc1OC | 963 s |
| CCCN1C(=O)COc2ccc(-c3csc(NC(C)=O)n3)cc21 | 806 s |

| SMILES | RP-LC retention time |
| --- | --- |
| Cc1ccc(CNC(=O)CN2C(=O)CCCc3cc(S(=O)(=O)N4CCCC4)ccc32)cc1 | 824 s |
| COc1ccc(S(=O)(=O)N2CCc3c(c(-c4nnc(-c5ccccc5)o4)nn3C)C2)cc1 | 909 s |
| CCOC(=O)c1c(NCCC(C)C)c2ccc(Cl)cc2[nH]c1=O | 900 s |
| Cc1ccc(NC(=O)Nc2ccccc2)c(=O)n1CC(=O)NCC1CCCO1 (centres undefined) | 697 s |
| O=S(=O)(c1cccc(C(F)(F)F)c1)N1CCN(c2ccc(-n3ccnc3)nn2)CC1 | 601 s |
| CCOC(=O)c1cccc(Nc2c(-c3ccccc3)nc3cnccn23)c1 | 875 s |
| O=C1CC[C@]2(C(=O)N3CCCCC3)CCCC[C@H]2N1CCc1ccccc1 | 878 s |
| Cc1ccc(Oc2nccn3c(=O)n(CC(=O)Nc4ccc(C(C)C)cc4)nc23)cc1 | 1030 s |
| COc1cc(-c2cccc(Cl)c2)nc2ccc(NC(C)=O)cc12 | 668 s |
| CC(C)S(=O)(=O)NC[C@H](C)c1ccc(NC(=O)c2cc(F)cc(F)c2)cc1 | 1050 s |
| CCCNC(=O)C1CCN(c2ccc(SCC(=O)Nc3cccc(CC)c3)nn2)CC1 | 674 s |
| CC(C)CCNS(=O)(=O)c1cc(-c2nc(C(C)(C)C)cs2)cs1 | 1310 s |
| COCc1cn(C2CN(C(=O)COc3ccccc3)C2)nn1 | 642 s |
| O=c1n(CCc2ccccc2)nc2c(S(=O)(=O)N3CCCCCC3)cccn12 | 1000 s |
| Cc1ccccc1Nc1c(-c2cccc(Cl)c2)nc2ccccn12 | 787 s |
| CCN(CC)c1nc(C(=O)N2CCC(N3CCCCC3)CC2)nc2nc(C)cc(C)c12 | 568 s |
| CN(C)CCNC(=O)Cn1c2ccccc2c2cnn(C)c(=O)c21 | 576 s |
| COc1ccc(C2CC(=O)c3c(C)nc(N4CCN(c5ccccn5)CC4)nc3C2)c(OC)c1 (centres undefined) | 765 s |
| Cc1nc(C(=O)N2CC(F)(F)C[C@H]2c2nc(C3CC3)no2)co1 | 768 s |
| Cn1c(=O)n(CC(=O)NC2CCCCC2)c(=O)c2cnc(-c3ccc(Cl)cc3)nc21 | 1070 s |
